Where “and” joins values, the source holds several entries; their conditions need not be identical. Equal entries are not always repeated.
Test: xn = mol fraction of the nth substance listed

C1CCOC1 + CO
Conditions	viscosity
298 K, 101 kPa, x1 = 0.0397	0.527 mPa·s
298 K, 101 kPa, x1 = 0.0463	0.5241 mPa·s
298 K, 101 kPa, x1 = 0.0629	0.5179 mPa·s
298 K, 101 kPa, x1 = 0.0984	0.5053 mPa·s
298 K, 101 kPa, x1 = 0.1593	0.49 mPa·s
298 K, 101 kPa, x1 = 0.2295	0.4758 mPa·s
298 K, 101 kPa, x1 = 0.3081	0.463 mPa·s
298 K, 101 kPa, x1 = 0.3952	0.4525 mPa·s
298 K, 101 kPa, x1 = 0.5068	0.4445 mPa·s
298 K, 101 kPa, x1 = 0.6498	0.4398 mPa·s
298 K, 101 kPa, x1 = 0.8052	0.4449 mPa·s
298.15 K, 101 kPa, x1 = 0.3	0.4761 mPa·s
298.15 K, 101 kPa, x1 = 0.3076	0.5025 mPa·s and 0.5015 mPa·s and 0.515 mPa·s
303 K, 101.3 kPa, x1 = 0.0471	0.474 mPa·s
303 K, 101.3 kPa, x1 = 0.1	0.452 mPa·s
303 K, 101.3 kPa, x1 = 0.1599	0.435 mPa·s
303 K, 101.3 kPa, x1 = 0.2285	0.406 mPa·s
303 K, 101.3 kPa, x1 = 0.3075	0.38 mPa·s
303 K, 101.3 kPa, x1 = 0.3998	0.373 mPa·s
303 K, 101.3 kPa, x1 = 0.509	0.356 mPa·s
303 K, 101.3 kPa, x1 = 0.6399	0.356 mPa·s
303 K, 101.3 kPa, x1 = 0.7995	0.384 mPa·s
313 K, 101.3 kPa, x1 = 0.0471	0.395 mPa·s
313 K, 101.3 kPa, x1 = 0.1	0.36 mPa·s
313 K, 101.3 kPa, x1 = 0.1599	0.35 mPa·s
313 K, 101.3 kPa, x1 = 0.2285	0.333 mPa·s
313 K, 101.3 kPa, x1 = 0.3075	0.31 mPa·s
313 K, 101.3 kPa, x1 = 0.3998	0.294 mPa·s
313 K, 101.3 kPa, x1 = 0.509	0.3 mPa·s
313 K, 101.3 kPa, x1 = 0.6399	0.294 mPa·s
313 K, 101.3 kPa, x1 = 0.7995	0.332 mPa·s

CC(C)=O + CO
Conditions	viscosity [mPa·s]
293.15 K, 101 kPa, x1 = 0.025	0.563
293.15 K, 101 kPa, x1 = 0.098	0.507
293.15 K, 101 kPa, x1 = 0.244	0.435
293.15 K, 101 kPa, x1 = 0.385	0.389
293.15 K, 101 kPa, x1 = 0.487	0.371
293.15 K, 101 kPa, x1 = 0.703	0.342
293.15 K, 101 kPa, x1 = 0.865	0.333
298.15 K, 101.33 kPa, x1 = 0.059	0.4921
298.15 K, 101.33 kPa, x1 = 0.1261	0.455
298.15 K, 101.33 kPa, x1 = 0.1889	0.4225
298.15 K, 101.33 kPa, x1 = 0.2564	0.3965
298.15 K, 101.33 kPa, x1 = 0.3691	0.367
298.15 K, 101.33 kPa, x1 = 0.4581	0.3458
298.15 K, 101.33 kPa, x1 = 0.558	0.3292
298.15 K, 101.33 kPa, x2 = 0.7146	0.3932
303.15 K, 101 kPa, x1 = 0.025	0.496
303.15 K, 101 kPa, x1 = 0.098	0.449
303.15 K, 101 kPa, x1 = 0.244	0.389
303.15 K, 101 kPa, x1 = 0.385	0.352
303.15 K, 101 kPa, x1 = 0.703	0.314
303.15 K, 101 kPa, x1 = 0.865	0.308
313.15 K, 101 kPa, x1 = 0.025	0.435
313.15 K, 101 kPa, x1 = 0.244	0.349
313.15 K, 101 kPa, x1 = 0.385	0.322
313.15 K, 101 kPa, x1 = 0.487	0.311
313.15 K, 101 kPa, x1 = 0.703	0.291
313.15 K, 101 kPa, x1 = 0.865	0.287
318.15 K, 101 kPa, x1 = 0.025	0.411
318.15 K, 101 kPa, x1 = 0.098	0.378
318.15 K, 101 kPa, x1 = 0.244	0.335
318.15 K, 101 kPa, x1 = 0.385	0.311
318.15 K, 101 kPa, x1 = 0.487	0.3
318.15 K, 101 kPa, x1 = 0.703	0.282
318.15 K, 101 kPa, x1 = 0.865	0.277
323.15 K, 101 kPa, x1 = 0.025	0.386
323.15 K, 101 kPa, x1 = 0.098	0.362
323.15 K, 101 kPa, x1 = 0.244	0.32

CC1COC(=O)O1 (configuration not stated) + CO
Conditions	viscosity [mPa·s]
298 K, 101.3 kPa, x1 = 0.0206	0.5726
298 K, 101.3 kPa, x1 = 0.0401	0.593
298 K, 101.3 kPa, x1 = 0.0604	0.6164
298 K, 101.3 kPa, x1 = 0.0808	0.6364
298 K, 101.3 kPa, x1 = 0.1018	0.6594
298 K, 101.3 kPa, x1 = 0.2016	0.7765
298 K, 101.3 kPa, x1 = 0.301	0.9078
298 K, 101.3 kPa, x1 = 0.401	1.058
298 K, 101.3 kPa, x1 = 0.5016	1.229
298 K, 101.3 kPa, x1 = 0.6002	1.418
298 K, 101.3 kPa, x1 = 0.7006	1.635
298 K, 101.3 kPa, x1 = 0.8004	1.877
298 K, 101.3 kPa, x1 = 0.9007	2.148
298.15 K, 101.33 kPa, x2 = 0.0512	2.266
298.15 K, 101.33 kPa, x2 = 0.0983	2.097
298.15 K, 101.33 kPa, x2 = 0.1406	1.958
298.15 K, 101.33 kPa, x2 = 0.1883	1.811
298.15 K, 101.33 kPa, x2 = 0.2587	1.616
298.15 K, 101.33 kPa, x2 = 0.343	1.414
298.15 K, 101.33 kPa, x2 = 0.3986	1.298
298.15 K, 101.33 kPa, x2 = 0.4723	1.167
298.15 K, 101.33 kPa, x2 = 0.5124	1.107
298.15 K, 101.33 kPa, x2 = 0.5819	1.001
298.15 K, 101.33 kPa, x2 = 0.6762	0.8678
298.15 K, 101.33 kPa, x2 = 0.758	0.7707
298.15 K, 101.33 kPa, x2 = 0.8297	0.6887
298.15 K, 101.33 kPa, x2 = 0.9256	0.5981
298.15 K, 101.33 kPa, x2 = 0.9495	0.5805
308.15 K, 101.33 kPa, x2 = 0.0512	1.895
308.15 K, 101.33 kPa, x2 = 0.0983	1.757
308.15 K, 101.33 kPa, x2 = 0.1406	1.648
308.15 K, 101.33 kPa, x2 = 0.1883	1.533
308.15 K, 101.33 kPa, x2 = 0.2587	1.377
308.15 K, 101.33 kPa, x2 = 0.343	1.213
308.15 K, 101.33 kPa, x2 = 0.4723	1.002
308.15 K, 101.33 kPa, x2 = 0.5124	0.948
308.15 K, 101.33 kPa, x2 = 0.5819	0.8651
308.15 K, 101.33 kPa, x2 = 0.6762	0.7581
308.15 K, 101.33 kPa, x2 = 0.8297	0.6034
308.15 K, 101.33 kPa, x2 = 0.8931	0.5517
308.15 K, 101.33 kPa, x2 = 0.9256	0.5282
308.15 K, 101.33 kPa, x2 = 0.9495	0.5118
318.15 K, 101.33 kPa, x2 = 0.0512	1.594
318.15 K, 101.33 kPa, x2 = 0.0983	1.48
318.15 K, 101.33 kPa, x2 = 0.1406	1.393
318.15 K, 101.33 kPa, x2 = 0.1883	1.296
318.15 K, 101.33 kPa, x2 = 0.2587	1.169
318.15 K, 101.33 kPa, x2 = 0.343	1.034
318.15 K, 101.33 kPa, x2 = 0.3986	0.9607
318.15 K, 101.33 kPa, x2 = 0.4723	0.8683
318.15 K, 101.33 kPa, x2 = 0.5124	0.8232
318.15 K, 101.33 kPa, x2 = 0.5819	0.7459
318.15 K, 101.33 kPa, x2 = 0.8297	0.5281
318.15 K, 101.33 kPa, x2 = 0.8931	0.4829
318.15 K, 101.33 kPa, x2 = 0.9256	0.4621
318.15 K, 101.33 kPa, x2 = 0.9495	0.4486

c1ccc2ccccc2c1 + CO
298.15 K, 101 kPa
Conditions	viscosity
x1 = 0.006	0.5509 mPa·s
x1 = 0.01	0.5564 mPa·s and 0.5619 mPa·s
x1 = 0.03	0.5893 mPa·s
